Assay results published in paper PMC8480782, “Efficient Dimerization Disruption of Leishmania infantum Trypanothione Reductase by Triazole-phenyl-thiazoles” (Journal of Medicinal Chemistry, 2021).
Where “and” joins values, the source holds several entries; their conditions need not be identical. Equal values may be shown once. Read-outs that look alike come from different tables or passages of the source.

Assays:
[1] = test system: L. infantum promastigotes; assay: Leishmanicidal activity on promastigotes (PI exclusion, flow cytometry); assay type: cell-based, Leishmania infantum; details: for SIp (ratio of EC50 against human cells to EC50 against promastigotes): HepG2 / promastigotes; for EC50: Leishmania infantum
Outline: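 Log-phase L. infantum promastigotes (MCAN/ES/89/IPZ229/1/89) at 2 × 10^6 parasites/mL in RPMI-1640 with 10% FCS, pH 7.2, were drug-treated for 24 h at 26 °C. Viability was scored by flow cytometric propidium iodide exclusion, and EC50 was derived by nonlinear regression.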

[2] = test system: L. infantum intracellular amastigotes; assay: Leishmanicidal activity in amastigote-infected THP-1 monocyte-derived macrophages; assay type: cell-based, Leishmania infantum
Experimental: (§1) THP-1 monocytes were seeded in a 48-well plate at a concentration of 5 × 10^5 cells/mL (250 μL/well) in RPMI complete medium supplemented with phorbol 12-myristate 13-acetate (PMA) (100 ng/mL). Differentiation of THP-1 monocytes to macrophages was allowed for 24 h at 37 °C and 5% CO2. THP-1-derived macrophages were infected with GFP-expressing axenic amastigotes at 5 × 10^6 parasites/mL in RPMI complete medium for 24 h (250 μL/well). Extracellular amastigotes were washed twice with PBS. The remaining extracellular parasites were challenged for 24 h with THP-1 medium supplemented with 10% horse serum (Gibco) instead of FCS. Cells were washed twice with PBS, and treatments were performed in 250 μL of fresh RPMI medium supplemented with 10% horse serum for 72 h at 37 °C and 5% CO2. Afterward, treatments were removed by two PBS washes. Lysis of infected cells was performed with 120 μL of SDS 0.005% (w/v) in PBS. After a 30 min incubation at 37 °C, lysis was stopped by adding RPMI complete medium with PI at 20 μg/mL (120 μL/well). The lysates were transferred to a 96-well plate (200 μL/well), and the GFP^+ amastigotes extracted from the infected cells were acquired by a Beckman Coulter FC500 flow cytometer. Each sample (100 μL) was acquired for 20 s.
The relative number of GFP^+ intracellular amastigotes per cell in each sample was estimated after the division of the total number of GFP+ amastigotes by the LDH activity value of the sample. Results were normalized to the vehicle-treated controls. EC50 values of intracellular amastigotes were calculated using a nonlinear regression model with GraFit 6 software (Erithacus, Horley, Surrey, U.K.). All of the assays were conducted in at least three independent experiments.

[3] = test system: THP-1 monocyte-derived macrophages; assay: Cytotoxicity in THP-1 monocyte-derived macrophages (LDH activity); assay type: cell-based, human; details: Homo sapiens, THP-1; LDH activity
Experimental: THP-1 cells were grown in RPMI-1640 medium (Gibco, Leiden, The Netherlands) supplemented with 10% heat-inactivated FCS, antibiotics, 10 mM HEPES, 2 mM glutamine, and 1 mM sodium pyruvate, pH 7.2, at 37 °C and 5% CO2.
as §1
Cytotoxicity of THP-1 infected macrophages was determined using an in-house developed lactate dehydrogenase (LDH) activity assay. LDH activity assays from the remaining cell lysates (100 μL/well) were carried out at 37 °C in 250 μL of Tris/HCl buffer (pH 8.9, 50 mM) containing DL-lactate (840 mM), NAD^+ (450 μM), 1-methoxyphenazine methosulfate (45 μM), and nitro blue tetrazolium chloride (40 μM). The color intensity of the generated formazan dye was monitored at 570 nm using an EnSpire Multimode Plate Reader (PerkinElmer, Waltham, MA). CC50 values were calculated using a nonlinear regression model with GraFit 6 software (Erithacus, Horley, Surrey, U.K.).

[4] = 24 h at 26 °C, read-out: EC50 promastigotes
[5] = Leishmania infantum, THP-1, 72 h, read-out: EC50 intracellular amastigotes, amastigote-infected THP-1 macrophages, 72 h
[6] = promastigotes or amastigotes (either form), read-out: EC50 against Leishmania promastigotes or amastigotes
[7] = Leishmania infantum, THP-1, 72 h, amastigote-infected THP-1 macrophages, 72 h, read-out: EC50 intracellular amastigotes

Row | Structure (SMILES) | SIp (ratio of EC50 against human cells to EC50 against promastigotes) [1] | EC50 [1, 4] | EC50 [2, 5] | EC50 [1, 6] | EC50 [3] | SI (intracellular amastigotes) ([2]; THP-1 / intracellular amastigotes) | EC50 ([2]; read-out: EC50 intracellular amastigotes, amastigote-infected THP-1 macrophages, 72 h) | EC50 [2, 7] | EC50 ([2]; amastigote-infected THP-1 macrophages, 72 h, read-out: EC50 intracellular amastigotes)
1 | NCCCCc1cn(-c2ccc(-c3nc(CCc4ccc5c(c4)CCO5)cs3)c(OCCN3CCNC3=O)c2)nn1.O=C(O)C(F)(F)F [12r] | 1.2 | 23.8 ± 0.5 µM | – | – | – | – | – | – | –
2 | NCCCCc1cn(-c2ccc(-c3nc(CCc4ccc5ccccc5c4)cs3)c(OCCN3CCNC3=O)c2)nn1.O=C(O)C(F)(F)F [12b, 1-(2-(5-(4-(4-Ammoniumbutyl)-1H-1,2,3-triazol-1-yl)-2-(4-(2-(naphthalen-2-yl)ethyl)thiazol-2-yl)phenoxy)ethyl)imidazolidin-2-one 2,2,2-Trifluoroacetate] | 4.0 | 8.4 ± 0.3 µM | > 75 µM | < 10 µM | > 75 µM | – | – | – | –
3 | NCCCCc1cn(-c2ccc(-c3nc(CCc4ccc(-c5ccccc5)cc4)cs3)c(OCCN3CCNC3=O)c2)nn1.O=C(O)C(F)(F)F [12c, 1-(2-(2-(4-(2-([1,1′-Biphenyl]-4-yl)ethyl)thiazol-2-yl)-5-(4-(4-ammoniumbutyl)-1H-1,2,3-triazol-1-yl)phenoxy)ethyl)imidazolidin-2-one 2,2,2-Trifluoroacetate] | 8.8 | 4.9 ± 0.4 µM | 46.5 ± 1.5 µM | < 10 µM | > 75 µM | – | – | – | –
4 | NCCCCc1cn(-c2ccc(-c3nc(-c4cccc(-c5csc(-c6ccc(-n7cc(CCCCN)nn7)cc6OCCN6CCNC6=O)n5)c4)cs3)c(OCCN3CCNC3=O)c2)nn1.O=C(O)C(F)(F)F.O=C(O)C(F)(F)F [compound 22, 1,1′-((((1,3-Phenylenebis(thiazole-4,2-diyl))bis(5-(4-(4-ammoniobutyl)-1H-1,2,3-triazol-1-yl)-2,1-phenylene))bis(oxy))bis(ethane-2,1-diyl))bis(imidazolidin-2-one)bis(2,2,2-trifluoroacetate)] | 8.0 | 3.8 ± 0.1 µM | 22 µM | – | 48.4 ± 14.5 µM | 2.2 | 22.2 ± 6.4 µM | – | –
5 | NCCCc1cn(-c2ccc(-c3nc(CCc4ccc(-c5ccccc5)cc4)cs3)c(OCCN3CCNC3=O)c2)nn1.O=C(O)C(F)(F)F [12i] | 10.4 | 5.8 ± 0.7 µM | – | – | > 75 µM | – | – | 54.5 µM | 54.4 ± 15.5 µM
6 | NCCCCc1cn(-c2ccc(-c3nc(-c4ccc(Oc5ccccc5)cc4)c(-c4ccccc4)s3)c(OCCN3CCNC3=O)c2)nn1.O=C(O)C(F)(F)F [19c, 1-(2-(5-(4-(4-Ammoniobutyl)-1H-1,2,3-triazol-1-yl)-2-(4-([4-phenyloxyphenyl]-1-yl)-5-phenylthiazol-2-yl)phenoxy)ethyl)imidazolidin-2-one 2,2,2-Trifluoroacetate] | – | – | > 75 µM | – | > 75 µM | – | – | – | –
7 | NCCNCc1nccn1-c1ccc(-c2nc(CCc3ccc(-c4ccccc4)cc3)cs2)c(OCCN2CCNC2=O)c1 [compound 3, reference compound] | 2.7 and 2.7/2.7 | 5.3 ± 0.3 µM | – | – | 15.5 ± 1.8 µM | – | – | > 75 µM | –
8 | NCCCCc1cn(-c2ccc(-c3nc(-c4ccccc4)c(-c4ccccc4)s3)c(OCCN3CCNC3=O)c2)nn1.O=C(O)C(F)(F)F [19a, 1-(2-(5-(4-(4-Ammoniobutyl)-1H-1,2,3-triazol-1-yl)-2-(4,5-diphenylthiazol-2-yl)phenoxy)ethyl)imidazolidin-2-one 2,2,2-Trifluoroacetate] | 2.5 | 10.7 ± 1.3 µM | – | – | – | – | – | – | –
9 | NCCNCc1nccn1-c1ccc(-c2nc(CCc3ccc4ccccc4c3)cs2)c(OCCN2CCNC2=O)c1 [compound 2, reference compound] | 2.1/2.1 | 12.8 ± 0.7 µM | – | – | 27.9 ± 4.4 µM | – | – | > 75 µM | –
10 | NCCCCc1cn(-c2ccc(-c3nc(-c4ccccc4)cs3)c(OCCN3CCNC3=O)c2)nn1.O=C(O)C(F)(F)F [12n] | – | 5.4 ± 0.08 µM | – | < 10 µM | – | – | – | – | –
11 | NCCCCc1cn(-c2ccc(-c3nc(CCc4ccc5c(c4)CCCN5)cs3)c(OCCN3CCNC3=O)c2)nn1.O=C(O)C(F)(F)F.O=C(O)C(F)(F)F [12q] | – | – | – | – | > 75 µM | – | – | > 75 µM | –
